Patent publication US8901337B2, “Metal complexes having dual histone deacetylase inhibitory and DNA-binding activity” (Royal College of Surgeons in Ireland, priority 2009, dated 2014)

What was measured:
DNA in A2780 P cells = test: Pt binding to DNA in cultured cells (ICP-MS), A2780 P; format: cell-based, human; conditions: 4 hours of cell treatment; for DNA-bound Pt in A2780 P: 40 μM of Pt complexes
Procedure: (§1) Pt DNA binding of Pt complexes was measured in SW480 cells (colon cancer) and CH1 cells (lymphoma) or alternatively A2780 P and A2780 cisR cells (sensitive and resistant to cisplatin respectively). The cells were seeded in 60 mm tissue culture dishes with 10 ml of their respective medium. After overnight incubation the medium was removed and replaced with 10 ml of the respective medium containing a platinum complex giving a final concentration of 43 or 40 μM depending on the experiment. The cells were incubated with a given Pt complex for either 2 or 4 h depending on the experiment. The cells were trypsinised and centrifuged. The supernantant was removed and the cells washed twice with 1×PBS and centrifuged. The pellet was re-suspended in DNA buffer to which Proteinase K (20 mg/mL) and 10% SDS were added. After a gentle shake and incubation at 45° C. for two hours, RNAse (100 mg/mL) was added and the cells were incubated at 37° C. overnight. The volume of supernatant was noted and an equal volume of phenol was added.
(§2) The resulting mixture was shook for 10 min, then centrifuged for 10 min at 10° C. The supernatant was transferred into a new centrifuge tube (15 ml) and the volume was noted. To this was added an equal volume of phenol and chloroform/isoamylalcohol (24:1). The resulting mixture was shook for 10 min, then centrifuged for 10 min at 10° C. (3000 RPM). The supernatant was transferred into a new centrifuge tube (15 mL) and the volume was noted. To this was added an equal volume of chloroform. The resulting mixture was shook for 10 min, then centrifuged for 10 min at 10° C. The supernatant was transferred into a new centrifuge tube (15 mL) and the volume was noted. To this was added a volume that is 1/10 of the supernatant of 3 M sodium acetate (Ph 5.2) and three times the volume of cold 100% isopropanol (from freezer). The solution was shook gently until the DNA is precipitated. […] The absorbance of the DNA by was measured by UV spectrophotometry at 260 nm and 280 nm and the concentration of DNA calculated. Platinum bound to DNA was determined by ICP-MS.

DNA in A2780 cisR cells = test: Pt binding to DNA in cultured cells (ICP-MS), A2780 cisR; format: cell-based, human; conditions: 4 hours of cell treatment
Procedure: as §1
The resulting mixture was shook for 10 min, then centrifuged for 10 min at 10° C. The supernatant was transferred into a new centrifuge tube (15 ml) and the volume was noted. […] The absorbance of the DNA by was measured by UV spectrophotometry at 260 nm and 280 nm and the concentration of DNA calculated. Platinum bound to DNA was determined by ICP-MS.

A2780 cisR cells = test: Inhibition of DNA synthesis, BrdU incorporation assay, A2780 cisR; format: cell-based, human; conditions: 72 hr, FIG. 19
Procedure: DNA synthesis was determined using 5-bromo-2-deoxyuridine (BrdU) colourimetric incorporation assay.^18 A2780 P and A2780 cisR cells were seeded into 96 well plates and allowed to adhere overnight. All test agents were added and incubated for 72 hr prior to the addition of BrdU (10 μM per well). Plates were then incubated at 37° C. for 4 h and incorporation was quantified by ELISA (Calbiochem).

[1] = system: DNA in SW480 cells (colon cancer); test: Pt binding to DNA in cultured cells (ICP-MS), SW480; format: cell-based; conditions: 2 hours of cell treatment
Procedure: as §1, §2

[2] = system: lung cancer cell line (A549); test: MTS in vitro cytotoxicity, A549; format: cell-based; conditions: 72 hours, Table 1, read-out: IC50 values against A549
Procedure: (§3) All cells were kept in a humidified atmosphere with 5% CO2 at 37° C.; cells from confluent monolayers were removed from flasks by trypsin/EDTA solution and their viability determined by the trypan blue exclusion test.
(§4) Cell growth was determined by the [3-(4,5-dimethylthiazol-2-yl)-5-(3-carboxymethoxyphenyl)-2-(4-sulfophenyl)-2H-tetrazolium, inner salt, (MTS test, Promega, Southampton, UK), a colorimetric assay based on the ability of the viable cells to reduce a soluble yellow tetrazolium salt to blue formazan. 10,000 ovarian cancer cells or 3,000 fibroblast cells for example were seeded per well onto 96-well plates in 100 μl of the appropriate culture medium. 24 hr after sowing the cells, the media was removed and the cells were treated by adding 100 μl of the compound media solutions at the appropriate concentrations. cis-[Pt(NH3)2(malSAHA−2H)], cisplatin and cis-[Pt(NH3)2(mal)] were prepared freshly in cell culture media. […] The maximum percentage of dmso present in any well was less than 0.1% (v/v). cis-[Pt(NH3)2(malBel—2H)], belinostat and malbelinostat were freshly prepared in dimethyl formamide (DMF) and diluted in culture media prior to the MTS assay. The maximum percentage of DMF present in any well was 0.5% (v/v). A range of concentrations between 1 μM and 100 μM was used.
(§5) After 72 hr of treatment, 20 μl of the MTS reagent was added to each well and the plates incubated for 2 hr at 37° C. […] The percentages of surviving cells relative to untreated controls were determined.

[3] = system: SKBR (breast cancer cells); test: Cellular uptake of Pt (FAAS), SKBR; format: cell-based; conditions: 72 hours treatment; for Uptake of Pt complexes into SKBR: 10 μM
Procedure: (§6) Cellular uptake of Pt compounds was measured in SKBR, SW480, A549, A2780P and CH1 cells. The cells were seeded in 60 mm tissue culture dishes with 10 mL of their respective medium and after overnight incubation, the cells were treated with the Pt complexes for 72 h at 10 μM concentration. The cell monolayers at the end of the incubation with the Pt complexes were washed (twice) with ice-cold phosphate buffered saline (PBS), trypsinized and harvested into cold (4° C.) PBS. Cell suspensions were centrifuged and the pellets were stored in PBS at −80° C. until assayed. Afterward, the pellets were digested by high pressure microwave mineralization and Pt content was determined by flameless atomic absorption spectrophotometry (FAAS). The results of cellular Pt uptake were corrected for adsorption effects. All experiments were made in triplicate.^17

[4] = system: breast cancer cell line (SKBR); test: MTS in vitro cytotoxicity, SKBR; format: cell-based; conditions: 72 hours, Table 1, read-out: IC50 values against SKBR
Procedure: as §3, §4, §5

cell line (CH1) = test: MTS in vitro cytotoxicity, CH1; format: cell-based; conditions: 72 hours, Table 1, read-out: IC50 values against CH1
Procedure: as §3, §4, §5

[5] = system: colon cancer cell line (SW480); test: MTS in vitro cytotoxicity, SW480; format: cell-based; conditions: 72 hours, Table 1, read-out: IC50 values against SW480
Procedure: as §3, §4, §5

[6] = system: liver cell lines (Hep-G2); test: MTS in vitro cytotoxicity, Hep-G2; format: cell-based; conditions: 72 hours, Table 1, read-out: IC50 values against Hep-G2
Procedure: as §3, §4, §5

[7] = system: SW480 (colon cancer cells); test: Cellular uptake of Pt (FAAS), SW480; format: cell-based; conditions: 10 μM, 72 hours treatment
Procedure: as §6

A549 (lung cancer cells) = test: Cellular uptake of Pt (FAAS), A549; format: cell-based; conditions: 10 μM, 72 hours treatment
Procedure: as §6

CH1 (cancer cells) = test: Cellular uptake of Pt (FAAS), CH1; format: cell-based; conditions: 10 μM, 72 hours treatment
Procedure: as §6

SMILES | DNA-bound Pt in A2780 P (DNA in A2780 P cells) | DNA binding in A2780 P compared with cisplatin (in words) (DNA in A2780 P cells) | DNA binding in A2780 cisR compared with cisplatin (in words) (DNA in A2780 cisR cells) | effect on DNA synthesis, BrdU incorporation (A2780 cisR cells) | binding of Pt to DNA in cultured cells (in words) ([1]; SW480 and CH1 cells) | IC50 [2] [µM] | Uptake of Pt complexes into SKBR [3] [pmol Pt/2 × 10^6 cell] | uptake by cancer cells compared with cisplatin (in words) ([3]; SKBR, SW480, A549, A2780 P, CH1) | IC50 [4] [µM] | IC50 (cell line (CH1)) [µM] | IC50 [5] [µM] | IC50 [6] [µM] | Uptake of Pt complexes into SW480 [7] [pmol Pt/2 × 10^6 cell] | Uptake of Pt complexes into A549 (A549 (lung cancer cells)) [pmol Pt/2 × 10^6 cell] | Uptake of Pt complexes into CH1 (CH1 (cancer cells)) [pmol Pt/2 × 10^6 cell] | DNA-bound Pt in SW480 ([1]; 43 μM of Pt complexes) | DNA-bound Pt in A2780 cisR (DNA in A2780 cisR cells; 40 μM of Pt complexes)
[NH2][Pt]1([NH2])[O]C(=O)C(Cc2ccc(NS(=O)(=O)c3ccc(/C=C/C(=O)NO)cc3)cc2)C(=O)[O]1 [cis-[Pt(NH3)2(malBel−2H)], cis-[Pt(NH3)2(malBel−2H)].1.5H2O] | 5,175 · 10^−15 ± 27 moles of Pt/μg of DNA | binds DNA in A2780 P and A2780 cisR cancer cells and to a greater extent than cisplatin | binds DNA in A2780 P and A2780 cisR cancer cells and to a greater extent than cisplatin | dose-dependant decrease in DNA synthesis | – | – | – | – | – | – | – | – | – | – | – | – | –
[NH2][Pt]1([NH2])[O]C(=O)C(Cc2ccc(NC(=O)CCCCCCC(=O)NO)cc2)C(=O)[O]1 [cis-[Pt(NH3)2(malSAHA−2H)], cis-[Pt(NH3)2(malSAHA−2H)].3H2O] | – | – | – | – | binds DNA in cultured cells after 2 hours of cell treatment | 12.7 ± 1.8 | 6568 ± 312 | taken up by cancer cells after 72 hours treatment and to a greater extent than cisplatin | 9.9 ± 1.8 | 3.8 ± 0.5 | 13.4 ± 3.9 | 47.8 ± 4 | 5422 ± 222 | 6419 ± 619 | 1595 ± 158 | – | –
N.N.[Cl][Pt][Cl] [cisplatin, cis-[Pt^II(NH3)2Cl2], reference compound] | 200 · 10^−15 ± 60 moles of Pt/μg of DNA | – | – | – | – | 6.3 ± 0.1 | 876.25 ± 70.55 | – | 7.5 ± 1.2 | 1 ± 0.5 | 8 ± 0.3 | 39.8 ± 3.5 | 391.95 ± 51.95 | 614.85 ± 94.85 | 145.4 ± 21.8 | 38.5 · 10^−15 moles of Pt/μg of DNA | 665 · 10^−15 ± 6 moles of Pt/μg of DNA
